Assays:
cell surface TrkA = biological target: T1, cell surface TrkA (Homo sapiens, UniProt P04629); assay: FACScan competition of mAb 5C3 binding on 4-3.6 cells; settings: mAb 1 nM; competitor 40 μM
T1 construct: expressed in transfected cells
From the text: (§1) The 4-3.6 cells are B104 cells stably transfected with human trkA cDNA, and express equal levels of p75 and TrkA (TrkA+ p75+). For screening agents that activate or antagonize TrkC receptors, NIH3T3 fibroblasts were stably transfected with human TrkC cDNA. These cells respond to the ligand NT-3. For screening agents that activate or antagonize TrkA receptors, NIH3T3 fibroblasts were stably transfected with human TrkA cDNA. These cells respond to the ligand NGF.
(§2) FACScan binding assays: 4-3.6 cells (2×10^5) in FACScan binding buffer (PBS, 0.5% BSA, and 0.1% NaN3) were immunostained as described (Saragovi et al., 1998). Saturating anti-TrkA mAb 5C3, or anti-p75 mAb MC192, or control non-binding IgGs were added to cells for 1 hour at 4° C., in the presence or absence of D3 as competitor. Excess primary antibody was washed off, and cells were immunostained with fluorescinated goat-anti-mouse IgG secondary antibody. Cells were acquired on a FACScan and mean channel fluorescence of bell-shaped histograms were analyzed using the LYSIS II program.

p75 NGF receptor subunit = biological target: T2, p75 NGF receptor subunit (Rattus norvegicus, UniProt P07174); assay: FACScan competition of anti-p75 mAb MC192 binding on 4-3.6 cells
T2 construct: B104 rat neuroblastomas express p75 receptors; endogenous in cells
T2 sequence (P07174 30-425): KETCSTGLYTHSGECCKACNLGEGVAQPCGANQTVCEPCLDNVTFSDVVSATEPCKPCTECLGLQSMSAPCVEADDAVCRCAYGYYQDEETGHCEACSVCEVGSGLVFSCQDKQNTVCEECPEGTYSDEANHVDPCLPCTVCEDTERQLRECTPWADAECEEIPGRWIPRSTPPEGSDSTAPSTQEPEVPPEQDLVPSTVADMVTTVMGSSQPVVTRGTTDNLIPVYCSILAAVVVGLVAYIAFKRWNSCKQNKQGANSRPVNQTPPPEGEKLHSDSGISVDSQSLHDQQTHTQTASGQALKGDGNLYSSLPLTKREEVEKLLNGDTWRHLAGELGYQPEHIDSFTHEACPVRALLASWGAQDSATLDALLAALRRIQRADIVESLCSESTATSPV
From the text: as §1, §2

TrkA-ECD = biological target: T3, TrkA-ECD (Homo sapiens, UniProt P04629); assay: ELISA competition of mAb 5C3 binding to immobilized TrkA-ECD; settings: mAb 5C3 2 nM; competitor 40 μM
T3 construct: pure soluble TrkA extracellular domain (TrkA-ECD) produced in baculovirus; made in house
T3 sequence (P04629 33-423 limits assumed): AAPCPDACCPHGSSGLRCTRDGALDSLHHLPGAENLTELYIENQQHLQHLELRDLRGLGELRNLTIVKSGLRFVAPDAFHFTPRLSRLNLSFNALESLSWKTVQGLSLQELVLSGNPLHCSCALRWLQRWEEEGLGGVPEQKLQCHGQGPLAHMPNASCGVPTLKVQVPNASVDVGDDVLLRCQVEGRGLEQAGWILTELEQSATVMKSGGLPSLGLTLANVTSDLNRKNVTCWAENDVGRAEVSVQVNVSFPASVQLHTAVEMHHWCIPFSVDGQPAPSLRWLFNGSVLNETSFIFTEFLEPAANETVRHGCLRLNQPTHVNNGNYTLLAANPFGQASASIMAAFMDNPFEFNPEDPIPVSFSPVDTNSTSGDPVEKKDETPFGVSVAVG
Description: Direct binding studies: were done as described (Saragovi et al., 1998) using 6 ng/well of recombinant baculovirus TrkA-extracellular domain protein (TrkA-ECD) or control bovine serum albumin (BSA, Fraction V, Boehringer Mannheim) immobilized onto 96-well microtest plates. Wells were blocked with binding buffer (BB: PBS with 1% BSA) for 1 hour. Then, 50 ng/well of biotinylated D3 were added as primary reagent in BB for 40 min in the absence or presence of excess non-biotinylated D3 as competitor. Wells were washed 5 times with BB, and horseradish peroxidase (HRP)-coupled avidin (Sigma) was added as secondary reagent for 30 min. Plates were washed in BB, and peroxidase activity was determined colorimetrically using 2,2-azinobis (3-ethylbenzthiazoline sulfonic acid) (ABTS, Sigma). The optical density (OD) was measured at 414 nm in a Microplate reader (Bio-Rad). Assays were repeated at least three times, n=4.
Binding Competition: studies were as described for direct binding assays to TrkA-ECD, except that as primary reagent 50 ng anti-TrkA mAb 5C3/well were added in BB, in the presence or absence of D3 or controls as competitors as described (Saragovi et al., 1998). Wells were washed 5 times with BB, and HRP-coupled goat anti-mouse was added as secondary reagent for 30 min. Plates were washed in BB, and peroxidase activity were determined. Assays were repeated at least three times, n=4.

[1] = test system: embryonic rat DRG primary neuronal cultures; assay: Cell survival (MTT), primary DRG cultures; assay type: cell-based; settings: compound 10 μM alone; 8 days;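 as to % Protection: 100% equals survival with optimal NGF at 1 nM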
Description: Fetal rat DRG primary cultures were established from Sprague Dawley day 17 rat embryos. All ganglia were dissected and dissociated first enzymatically with trypsin and then mechanically. Dissociated cells were cultured (10^5 cells/well) in 96 well plates pre-coated with collagen, and grown for a total of 8 days in Neuro Basal Medium containing N2 supplement (GIBCO, Toronto), antibiotics, and L-glutamine. These DRG cultures are ˜85% TrkA-expressing and are heavily dependent on TrkA signals for survival.
Primary DRG cultures: After a total of 8 days of culture with the indicated test or control ligands, cell survival were studied using the 3(4,5-Dimethylthiazolyl-2)-2,5-diphenyl tetrazolium bromide colorimetric (MTT) assay, and by microscopic observation.
(§3) Cell lines: 5,000 cells/well in protein-free media (PFHM-II, GIBCO, Toronto) containing 0.2% bovine serum albumin (BSA) (Crystalline fraction V, Sigma, St. Louis, Mo.) were seeded in 96 well plates (Falcon, Mississauga, Ontario). The cultures were untreated, or treated with the indicated test or control ligands. Cell viability was quantitated using the MTT assay after 56-72 hours of culture. […] The OD of untreated cells were subtracted. The higher optical density of untreated primary cultures is likely due to cellular heterogeneity and to endogenous production of limiting amounts of growth factors.

4-3.6 cells (p75+TrkA+) = assay: Cell survival (MTT), 4-3.6 cells; assay type: cell-based, rat; settings: 72 hours;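 as to % Protection: 100% equals survival with optimal NGF at 1 nM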
From the text: as §1, §3

[2] = biological target: T4, HEK 293 cells expressing TrkB/TrkA IgG-C2 chimeric receptor (Homo sapiens, UniProt P04629+Q16620); assay: Cell survival (MTT), HEK 293-TrkB/TrkA IgG-C2 chimera; assay type: cell-based; settings: HEK 293-TrkB/TrkA chimera, 72 hours;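 as to % Protection: 100% equals survival with optimal NGF at 1 nM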
T4 construct: The IgG-C2 domain of human TrkA was generated using unique restriction sites; expressed in transfected cells
T4 sequence (P04629 299-365 limits assumed, change not shown, one chain of several): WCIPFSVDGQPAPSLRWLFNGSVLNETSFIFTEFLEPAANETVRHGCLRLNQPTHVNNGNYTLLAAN
From the text: The IgG-C2 domain of human TrkA was generated using unique restriction sites in the primers to allow exchange with the corresponding rat TrkB domain. The chimeric receptors were constructed by subcloning the human TrkA IgG-C2 domain into the corresponding restriction sites of the rat trkB cDNA reported in a previous work (Perez et al., 1995). Chimeric constructs were confirmed by sequencing, and were cloned into the pCDNA3 expression vector that contains a selection gene providing resistance to neomycin (G418, GIBCO). HEK293 cells were transfected using the lipofectamine plus method (GIBCO), selected with neomycin (0.5 mg/ml) and at least 3 independent subclones were obtained by limiting dilution techniques (293-TrkB/A-IgC2 chimera).
as §3, with “subtracted.” for “subtracted. The higher optical density of untreated primary cultures is likely due to cellular heterogeneity and to endogenous production of limiting amounts of growth factors.”

septal neuronal cultures = assay: ChAT activity in septal neuronal cultures; assay type: cell-based, rat; settings: compound 20 μM alone; day 8
Description: Cell cultures were established from the septal area of 17-day-old rat embryos. In brief, tissue was incubated in PBS containing trypsin and DNase. Tissue pieces then were mechanically dissociated. After centrifugation, the pellet was suspended in Leibovitz's L-15 medium. Cells were plated onto 96-multiwell NUNC dishes (10^5 cells/well) coated with poly-D-lysine (5 μg/ml). Pure cultures of septal neurons were treated 1 day after plating. Drugs, prepared in medium, were added directly to the cells without changing the initial medium. The incubation continued for 8 days, at which time ChAT activity was evaluated.
At day 8 of culture, the medium was aspirated, and ice-cold lysis buffer (10 mM sodium phosphate, pH 7.4/0.1% TritonX-100—Trade-mark) was added. ChAT activity assays were performed directly in the wells using Fonnum's method (Fonnum, 1975).

[3] = biological target: p75 NGF receptor on B104 rat neuroblastoma cells and 4-3.6 cells (rat) (UniProt P07174); assay: FACScan, 4-3.6 cells, mAb 1 nM, no competitor
Sequence of p75 NGF receptor on B104 rat neuroblastoma cells and 4-3.6 cells (rat) (P07174 30-425): as the sequence (P07174 30-425) above

T1 sequence (P04629 33-796): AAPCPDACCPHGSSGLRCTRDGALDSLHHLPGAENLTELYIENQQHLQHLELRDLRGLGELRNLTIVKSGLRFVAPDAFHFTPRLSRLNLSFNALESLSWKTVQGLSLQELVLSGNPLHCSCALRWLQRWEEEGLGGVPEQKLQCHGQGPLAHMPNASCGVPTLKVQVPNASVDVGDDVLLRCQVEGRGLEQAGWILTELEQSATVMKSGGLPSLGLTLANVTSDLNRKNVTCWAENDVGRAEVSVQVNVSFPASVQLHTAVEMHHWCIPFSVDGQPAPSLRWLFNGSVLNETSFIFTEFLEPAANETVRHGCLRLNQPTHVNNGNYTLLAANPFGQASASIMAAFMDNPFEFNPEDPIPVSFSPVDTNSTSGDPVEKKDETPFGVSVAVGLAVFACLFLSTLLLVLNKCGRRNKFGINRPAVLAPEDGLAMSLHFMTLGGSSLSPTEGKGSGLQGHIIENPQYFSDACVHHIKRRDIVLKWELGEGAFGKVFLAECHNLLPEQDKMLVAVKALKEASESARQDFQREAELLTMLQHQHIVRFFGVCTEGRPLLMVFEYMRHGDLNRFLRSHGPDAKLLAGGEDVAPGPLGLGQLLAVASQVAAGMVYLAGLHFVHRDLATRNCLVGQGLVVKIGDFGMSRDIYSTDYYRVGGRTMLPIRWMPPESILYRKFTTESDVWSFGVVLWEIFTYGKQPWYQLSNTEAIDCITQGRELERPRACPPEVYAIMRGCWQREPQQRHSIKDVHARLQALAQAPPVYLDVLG

NCCCC[C@@H]1NC(=O)[C@H](CCC(=O)O)NC(=O)c2cc([N+](=O)[O-])ccc2SCC(C(N)=O)NC1=O (stereo partly shown) [C59, EKCys]
% Maximal binding of mAb 5C3 (cell surface TrkA): 97 ± 6% | inhibition of mAb MC192 binding (p75 NGF receptor subunit): did not inhibit | % Binding of mAb 5C3 to TrkA-ECD (TrkA-ECD): 96 ± 9% | % Protection [1]: 0 ± 1% | Optical Density [1]: 271 ± 8 | % Protection (4-3.6 cells (p75+TrkA+); compound 10 μM + 10 pM NGF): 41 ± 4% | Optical Density (4-3.6 cells (p75+TrkA+); compound 10 μM + 10 pM NGF): 209 ± 17 | % Protection (4-3.6 cells (p75+TrkA+); compound 10 μM alone): 2 ± 1% | Optical Density (4-3.6 cells (p75+TrkA+); compound 10 μM alone): 76 ± 4 | % Protection ([2]; compound 10 μM + 10 pM NGF): 21 ± 6% | Optical Density ([2]; compound 10 μM + 10 pM NGF): 90 ± 9 | % Protection ([2]; compound 10 μM alone): −1 ± 2% | Optical Density ([2]; compound 10 μM alone): 30 ± 7 | ChAT Activity (septal neuronal cultures): 0.30 ± 0.05 pmol Ach/min/well | Fold Increase (ChAT activity) (septal neuronal cultures): 1

anti-p75 monoclonal antibody MC192
% Maximal binding [3]: 100%
